This passage reports viscosity, speed of sound and mass density results from the NIST ThermoML archive (doi:10.1021/je9005344).

± gives the expanded uncertainty stated by the source.

By viscosity is commonly meant the internal friction of a fluid under shear. As usually defined, the speed of sound is how fast a sound wave travels through the sample. As usually defined, the mass density is the mass of a sample divided by its volume.

The conditions of the data set: 298.15 K, 101.3 kPa, Liquid; for viscosity: Capillary tube (Ostwald / Ubbelohde) method; for speed of sound: Pulse-echo method; for mass density: Vibrating tube method.

Regarding `COCCO` [2-methoxyethan-1-ol], the viscosity came out at 1.512 ± 0.013 mPa·s, the speed of sound is recorded as 1343.5 ± 1.2 m/s and the mass density stood at 960.978 ± 0.23 kg/m3.

As to `CCCCCCCCCCO` [decan-1-ol], the viscosity amounted to 11.19 ± 0.077 mPa·s, the speed of sound came out at 1379.9 ± 1.2 m/s and the mass density is on record as 826.47 ± 0.23 kg/m3.

For the molecule `CCCCCCCCO` [octan-1-ol], the viscosity came out at 7.143 ± 0.051 mPa·s, the speed of sound stood at 1347.6 ± 1.2 m/s and the mass density is given as 821.794 ± 0.23 kg/m3.

Turning to `CCCCCCO` [hexan-1-ol], the viscosity worked out at 4.439 ± 0.033 mPa·s, the speed of sound was determined as 1303.2 ± 1.2 m/s and the mass density is given as 815.265 ± 0.23 kg/m3.
